For 10 compounds, IC50 and inhibition results are on record in patent publication US20240002388A1, “PYRIMIDINONE COMPOUNDS AND USES THEREOF” (HUTCHISON MEDIPHARMA LIMITED, priority 2020, published 2024).

Assay [1] concerns the target RIPK1 recombination protein (Homo sapiens (Human), UniProt Q13546). Nature of the assay: RIPK1 kinase activity assay (ADP-Glo). The conditions noted are these: for IC50: RIPK1 kinase activity, ADP-Glo, 10 μM ATP. It is filed as biochemical. As to the method: RIPK1 recombination protein: synthesized by Shanghai Medicilon Inc. under the commission by Hutchison MediPharma Limited (50 g of cell pellet was resuspended in 250 mL of lysis buffer (50 mM Tris, pH 7.5, 250 mM NaCl, 1 mM DTT, protease inhibitor 1:50), the cells were ultrasonically lysed using a sonicator (the power set to 4) on ice for 3×30 minutes; then centrifugation was carried out at 4° C., at 15,000 g for 30 minutes to clarify the suspension, the soluble pellet was resuspended into 10 mL of glutathione agarose, and incubated at 4° C. for 2 hours; then the beads were loaded into the column and washed with lysis buffer (no protease inhibitors) to baseline, and eluted with 20 mM of reduced glutathione (50 mM Tris, pH 8). The fractions identified by SDS-PAGE as containing the protein of interest were collected (10 mL of total volume), concentrated to about 5 mL and loaded into 300 mL superdex75 column (GE Healthcare) equilibrated with buffer (50 mM Tris, pH 7.5, 150 mM NaCl, 1 mM DTT, 10% glycerol, pH 7.5). RIP1 protein was eluted as a dimer from the superdex75 column. The protein concentration was determined by the Bradford assay using BSA as the standard. The yield was 12.5 mg at 0.63 mg/mL. The protein was aliquoted and frozen at −80° C. for later use.
ADP-Glo Kinase kit can be used to measure ADP level in kinase activity assay so as to distinguish the inhibitory effects of different compounds on RIPK1 kinase activity. The ADP-Glo assay was usually divided into three steps. Firstly, the kinase converted ATP to ADP and phosphorylated the substrate at the same time; secondly, ATP digestion reagent was added to degrade all ATP in the reaction system; finally, a detection reagent was added to reduce ADP to ATP, and energy from ATP was transferred to […] which thus emitting a chemical luminescence that can be detected. Assay procedure can refer to manufacture's technical manual.
(2) Reagent Preparation: • 1.33× kinase buffer: 5× kinase buffer stock (250 mM of NaCl, 150 mM of MgCl2, 2.5 mg/ml BSA (bovine serum albumin), 0.1% CHAPS (3-[(3-cholamidopropyl)-dimethyl-ammonio]-1-propane sulfonate), and 5 mM of dithiothreitol) was diluted with water to 1.33× kinase buffer; • RIPK1 enzyme solution: the kinase was dissolved in 1.33× kinase buffer to make 40 nM as the final working concentration; • ATP solution: 10 mM ATP stock solution in water was dissolved in 1.33× kinase buffer to make 10 μM as the final working concentration; • 4× compound preparation: the compound was diluted in a 3-fold gradient, and finally 4% DMSO aqueous solution containing different concentrations of the compound was obtained. The final concentrations of the test compound were 10, 3.33, 1.11, 0.37, 0.12, 0.04, 0.014, and 0.005 μM.
The assay set up two control groups, one was 100% inhibition group (no enzyme treatment), another was 0% inhibition group (no inhibitor treatment), each control group contained 8 replicate wells. 2.5 μl of serially diluted compound was added to each well of a 384-well plate, with double replicate wells, and 4% DMSO solution was added to control wells. Then 5 μl of RIPK1 enzyme solution was added to each well except 100% inhibition control, 5 ul of buffer was added to 100% inhibition control, after that, 2.5 μl of ATP solution was added to all wells, the plate was vibrated at 1000 rpm for 30 seconds to perform transient centrifuge; finally the 384-well assay plate was put in the shaking incubator, and incubated at room temperature for 3 hours. After the enzymatic reaction was completed, 5 μl of ATP depletion reagent was added to each well, the mixture was centrifuged transiently, then the 384-well assay plate was put in the shaking incubator, and incubated at room temperature for 1 hour. 5 μl of ADP detection reagent was added to each well, and the mixture was centrifuged transiently, and incubated at room temperature for 0.5 hour. […]

The subject of assay [2] is U937 cell line (human histiocytic lymphoma cell line). In words: U937 cell viability assay (TNF-α + Z-VAD-FMK induced necroptosis). Format: cell-based. To be noted: Homo sapiens, U-937; U937 cells, hTNF-α 0.1 μg/mL + Z-VAD-FMK 50 μM, 20 hours, CellTiter-Glo. As to the method:
U937 cell line (human histiocytic lymphoma cell line): purchased from ATCC (American Type Culture Collection) Cell Bank, cultured in a 5% CO2, 37° C. incubator, and RPMI 1640 medium which contains L-glutamine, 1.5 g/L sodium bicarbonate, 2.383 g/L HEPES solution, 0.11 g/L sodium pyruvate and 4.5 g/L glucose, plus 10% fetal bovine serum (FBS) was used. • RPMI 1640 medium: GIBCO, Cat #A10491-01; • Fetal bovine serum (FBS): GIBCO, Cat #10099-141C; • Dimethyl sulfoxide (DMSO): Sigma, Cat #D2650; • Recombinant Human TNF-alpha Protein (hTNF-α): R&D system, Cat #210-TA-100; • Pan-Caspase inhibitor (Z-VAD-FMK): Selleckchem, Cat #S7023; • CellTiter-Glo 2.0 Cell Viability Assay kit: Promega, Cat #G9242; • Microwell plate reader: Envision, Perkin Elmer; • 96-well plate: Corning, Cat #3917.
The U937 cells at the logarithmic phase were taken out, centrifuged to remove the medium, washed with PRMI 1640 medium containing 1% FBS, and diluted with 1% FBS-containing RPMI 1640 medium to 2.5×10^5 cells/ml, inoculated at 70 μL/well into a 96-well plate, i.e., 1.75×10^4 cells/well. The plate was cultured in a 5% CO2, 37° C. cell incubator. After incubating for 1 hour, the test compound was diluted to the corresponding concentrations using DMSO with 3-fold serial dilution, then the corresponding concentration of DMSO diluted solution was diluted into 1% FBS-containing RPMI 1640 medium, and 10 μL/well of the diluted test compound with different concentrations (final concentration of test compound was 1.0, 0.333, 0.111, 0.037, 0.012, 0.004, 0.0014 and 0.0005 μM, while final concentration of DMSO was 0.3%) or 10 μL/well control solution (3% DMSO) were added to the cell culture system respectively, with the total volume being 80 μL/well; Then 10 μL of Z-VAD-FMK solution diluted with 1% FBS-containing RPMI 1640 medium (final concentration of 50 μM) or 10 μL of control solution (2.5% DMSO) was added to each well, with the total volume being 90 μL/well. The plate was incubated in a 5% CO2, 37° C. cell culture incubator for 1 hour.
After being cultured for 1 hour, 10 μL of human recombinant TNF-α protein diluted with 1% FBS-containing RPMI 1640 medium (final concentration of 0.1 μg/mL) or 10 μL/well control solution (1% FBS-containing RPMI 1640 medium) was added to each well. The plate was incubated in a 5% CO2, 37° C. cell culture incubator for 20 hours.
The cell culture plate was taken out from the incubator, and left to stand at room temperature for 30 minutes. Meanwhile, CellTiter-Glo viability assay kit was put from freezer to room temperature, and 50 μL of CellTiter-Glo reagent was added to all wells, the plate was shaken for 1 minutes, protected from light at room temperature for 10 minutes then read the plate on Envision to get the luminescence signal.
The 96-well plate in the dark was taken out, and the chemiluminescence was determined using the Envision microwell plate reader as the signal value of each well.
The mean signal value of the wells of the mixed solution of recombinant human TNF-alpha protein (final concentration of 0.1 μg/mL) and Pan-Caspase inhibitor (final concentration of 50 μM) was used as the lower value, and the mean signal value of the wells without stimulation was used as the upper value. According to the signal value of each well, the inhibition rate of each concentration of every compound was calculated, and the IC50 value of compound was obtained by Model 205 in XL-Fit 5.3 software (ID Business Solutions Limited).
Inhibition rate %=[(Luminescence readout of treated compound−Luminescence readout of positive control)/(Luminescence readout of negative control−Luminescence readout of positive control)]×100%, wherein
In general terms: In ATP-based viability assays light output follows the ATP content of the culture.

Sequence of RIPK1 recombination protein (Q13546 other isoform, or with tags, fused parts or gaps): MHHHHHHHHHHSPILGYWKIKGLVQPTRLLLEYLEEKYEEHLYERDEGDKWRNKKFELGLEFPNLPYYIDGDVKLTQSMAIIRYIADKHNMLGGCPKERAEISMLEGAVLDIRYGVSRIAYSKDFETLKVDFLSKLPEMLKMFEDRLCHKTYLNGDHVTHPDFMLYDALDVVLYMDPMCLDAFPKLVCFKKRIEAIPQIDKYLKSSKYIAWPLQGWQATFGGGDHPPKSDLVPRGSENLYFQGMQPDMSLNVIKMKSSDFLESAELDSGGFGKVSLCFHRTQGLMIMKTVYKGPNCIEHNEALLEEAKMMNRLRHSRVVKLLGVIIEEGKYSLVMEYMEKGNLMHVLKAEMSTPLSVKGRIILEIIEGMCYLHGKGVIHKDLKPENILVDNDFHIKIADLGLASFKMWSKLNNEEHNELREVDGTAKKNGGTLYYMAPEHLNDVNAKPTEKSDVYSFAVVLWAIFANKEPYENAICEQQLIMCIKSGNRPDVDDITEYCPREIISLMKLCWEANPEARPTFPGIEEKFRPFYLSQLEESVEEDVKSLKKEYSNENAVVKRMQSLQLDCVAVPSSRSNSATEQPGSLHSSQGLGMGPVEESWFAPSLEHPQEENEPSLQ

The IC50 is the midpoint of a concentration-inhibition curve. Consider `Cn1c(N)ncc(-c2ccc(C3(NC(=O)c4nnc(Cc5ccccc5)[nH]4)CC3)cc2)c1=O` [Compound 7], for which the IC50 was found to be 39 nM in assay [1] and 68 nM in assay [2].
The matching figures for `CC(C)n1ncc2cnc(C(=O)NC3(c4ccc(-c5cncn(C)c5=O)c(C(F)(F)F)c4)CC3)nc21` [Compound 24]: 89 nM and 161 nM.
`Cc1cc(C2(NC(=O)c3ncc4cnn(C(C)C)c4n3)CC2)ccc1-c1cncn(C)c1=O` [Compound 27]: the figures for the IC50 in assay [1] and in assay [2] were 46 nM and 102 nM, respectively.
For the compound `Cc1ncc(-c2ccc(C3(NC(=O)c4ncc5cnn(C(C)C)c5n4)CC3)cc2)c(=O)n1C` [Compound 31], the IC50 in assay [1] worked out at 432 nM.
For the compound `CC(C)n1ncc2cnc(C(=O)NC3(c4ccc(-c5cncn(C)c5=O)cc4Cl)CC3)nc21` [Compound 32], the inhibition at 3 µM in assay [1] (3 μM compound, read-out: Inhibition rate at the compound concentration of 3 μM) came to 82.5%.
As for `Cn1cncc(-c2ccc(C3(NC(=O)c4n[nH]c(Cc5ccccc5)n4)CC3)c(F)c2)c1=O` [Compound 48], the IC50 came out at 53 nM in assay [1] and 39 nM in assay [2].
As to `Cn1cncc(-c2ccc(C3(NC(=O)c4nc5n(n4)[C@H](c4ccccc4)CC5)CC3)cc2)c1=O` [Compound 53, (S)—N-(1-(4-(1-methyl-6-oxo-1,6-dihydropyrimidin-5-yl)phenyl)cyclopropyl)-5-phenyl-6,7-dihydro-5H-pyrrolo[1,2-b][1,2,4]triazole-2-carboxamide], the IC50 in assay [1] stood at 121 nM; in assay [2], 554 nM.
As to `C[C@@H](c1ccccc1)n1cnc(C(=O)NC2(c3ccc(-c4cncn(C)c4=O)cc3)CC2)n1` [Compound 56, (S)—N-(1-(4-(1-methyl-6-oxo-1,6-dihydropyrimidin-5-yl)phenyl)cyclopropyl)-1-(1-phenylethyl)-1H-1,2,4-triazole-3-carboxamide], the IC50 in assay [1] worked out at 189 nM.
For the compound `C[C@H](c1ccccc1)c1nnc(C(=O)NC2(c3ccc(-c4cncn(C)c4=O)cc3)CC2)[nH]1` [Compound 57, (R)—N-(1-(4-(1-methyl-6-oxo-1,6-dihydropyrimidin-5-yl)phenyl)cyclopropyl)-5-(1-phenylethyl)-4H-1,2,4-triazole-3-carboxamide], the IC50 in assay [1] worked out at 531 nM.
Take `C[C@@H](c1ccccc1)c1nnc(C(=O)NC2(c3ccc(-c4cncn(C)c4=O)cc3)CC2)[nH]1` [Compound 58, (S)—N-(1-(4-(1-methyl-6-oxo-1,6-dihydropyrimidin-5-yl)phenyl)cyclopropyl)-5-(1-phenylethyl)-4H-1,2,4-triazole-3-carboxamide]: in assay [1], the IC50 turned out to be 139 nM.
